Data published in patent US20240246967A1, “AXL COMPOUNDS” (ARCUS BIOSCIENCES, INC., priority 2021, published 2024).

Columns and labels:
human MER = target: T1, human MER (Homo sapiens, UniProt Q12866); assay: HTRF KinEASE-TK biochemical potency assay, MER; conditions: 1 nM MER, 700 μM ATP, 800 nM TK Substrate-biotin
T1 construct: purchased Invitrogen
T1 sequence (Q12866 21-999): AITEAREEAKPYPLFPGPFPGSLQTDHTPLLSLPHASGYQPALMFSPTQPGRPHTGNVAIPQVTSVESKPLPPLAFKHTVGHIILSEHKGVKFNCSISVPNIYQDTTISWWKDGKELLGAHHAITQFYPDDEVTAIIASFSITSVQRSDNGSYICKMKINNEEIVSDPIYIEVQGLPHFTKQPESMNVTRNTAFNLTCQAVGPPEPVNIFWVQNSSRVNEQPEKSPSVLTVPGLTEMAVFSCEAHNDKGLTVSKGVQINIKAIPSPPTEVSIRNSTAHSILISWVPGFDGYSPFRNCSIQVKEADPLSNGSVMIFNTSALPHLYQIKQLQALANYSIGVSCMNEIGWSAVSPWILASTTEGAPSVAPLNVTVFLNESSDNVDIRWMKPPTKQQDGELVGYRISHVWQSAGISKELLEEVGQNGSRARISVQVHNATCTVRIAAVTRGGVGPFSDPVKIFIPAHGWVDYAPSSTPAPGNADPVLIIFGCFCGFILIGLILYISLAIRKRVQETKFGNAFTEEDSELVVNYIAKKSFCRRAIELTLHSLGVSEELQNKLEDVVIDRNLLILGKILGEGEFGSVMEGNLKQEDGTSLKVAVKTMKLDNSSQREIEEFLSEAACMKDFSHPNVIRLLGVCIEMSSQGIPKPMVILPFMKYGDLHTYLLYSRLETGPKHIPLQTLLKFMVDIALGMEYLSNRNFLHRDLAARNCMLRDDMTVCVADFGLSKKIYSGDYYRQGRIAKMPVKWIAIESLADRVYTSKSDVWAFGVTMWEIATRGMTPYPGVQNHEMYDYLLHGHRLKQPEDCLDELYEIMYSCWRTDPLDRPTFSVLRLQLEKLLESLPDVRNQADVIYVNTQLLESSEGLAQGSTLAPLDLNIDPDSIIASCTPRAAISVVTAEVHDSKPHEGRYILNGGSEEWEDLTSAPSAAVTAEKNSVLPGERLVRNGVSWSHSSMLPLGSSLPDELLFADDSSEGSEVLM
Description: (§1) Purified recombinant human AXL, TYRO3 and MER proteins were purchased from Invitrogen™. 10 nM AXL, 2 nM TYRO3 or MER were incubated with varying concentrations of compounds in 50 mM HEPES, pH 7.4, 10 mM MgCl2, 0.01% BSA, 1 mM DTT and 2% DMSO in a total volume of 20 μl in a 384-well microplate (Corning™ #3640) at RT for 1 h. The AXL, TYRO3 and MER enzymatic reaction was initiated by transferring 10 μl of enzyme and compound mixture into 10 μl of 1.6 μM TK Substrate-biotin (HTRF® KinEASE-TK kit, Cisbio) and 1400 μM ATP pre-incubated in 50 mM HEPES, pH 7.4, 10 mM MgCl2, 0.01% BSA, 1 mM DTT in a 384-well microplate (Corning™ #3640) at RT, giving the final reaction conditions: 5 nM AXL, 1 nM TYRO3 or MER, 800 nM TK Substrate-biotin and 700 μM ATP in 50 mM HEPES, pH 7.4, 10 mM MgCl2, 0.01% BSA, 1 mM DTT and 1% DMSO with varying concentrations of compounds. Following 2 h incubation at RT, the AXL, TYRO3 and MER enzymatic reaction was stopped by transfer of 10 μl of reaction into 10 μl of detection mix (400 nM Streptavidin-XL665, 200-fold dilution TK Antibody-Cryptate and detection buffer, HTRF® KinEASE-TK kit, Cisbio) in a white 384-well microplate (Perkin Elmer, OptiPlate 384). After 1 h incubation at RT, the plate was put into a plate reader (Evision) to read at 665/620 nm (acceptor/donor) for HTRF. The value of the DMSO blank (MIN inhibition=100% activity) was used as a negative control. The positive control was established by adding 5 μl of enzyme and DMSO mixture into 10 μl of detection mix followed by addition of 5 μl of TK Substrate-biotin and ATP mixture (MAX inhibition=0% activity). To calculate the percent activity, Equation 1 was used. Ratio 665/620 is the value at a given compound concentration: […]

human TYRO3 = target: T2, human TYRO3 (Homo sapiens, UniProt Q06418); assay: HTRF KinEASE-TK biochemical potency assay, TYRO3; conditions: 1 nM TYRO3, 700 μM ATP, 800 nM TK Substrate-biotin
T2 construct: purchased Invitrogen
T2 sequence (Q06418 41-890): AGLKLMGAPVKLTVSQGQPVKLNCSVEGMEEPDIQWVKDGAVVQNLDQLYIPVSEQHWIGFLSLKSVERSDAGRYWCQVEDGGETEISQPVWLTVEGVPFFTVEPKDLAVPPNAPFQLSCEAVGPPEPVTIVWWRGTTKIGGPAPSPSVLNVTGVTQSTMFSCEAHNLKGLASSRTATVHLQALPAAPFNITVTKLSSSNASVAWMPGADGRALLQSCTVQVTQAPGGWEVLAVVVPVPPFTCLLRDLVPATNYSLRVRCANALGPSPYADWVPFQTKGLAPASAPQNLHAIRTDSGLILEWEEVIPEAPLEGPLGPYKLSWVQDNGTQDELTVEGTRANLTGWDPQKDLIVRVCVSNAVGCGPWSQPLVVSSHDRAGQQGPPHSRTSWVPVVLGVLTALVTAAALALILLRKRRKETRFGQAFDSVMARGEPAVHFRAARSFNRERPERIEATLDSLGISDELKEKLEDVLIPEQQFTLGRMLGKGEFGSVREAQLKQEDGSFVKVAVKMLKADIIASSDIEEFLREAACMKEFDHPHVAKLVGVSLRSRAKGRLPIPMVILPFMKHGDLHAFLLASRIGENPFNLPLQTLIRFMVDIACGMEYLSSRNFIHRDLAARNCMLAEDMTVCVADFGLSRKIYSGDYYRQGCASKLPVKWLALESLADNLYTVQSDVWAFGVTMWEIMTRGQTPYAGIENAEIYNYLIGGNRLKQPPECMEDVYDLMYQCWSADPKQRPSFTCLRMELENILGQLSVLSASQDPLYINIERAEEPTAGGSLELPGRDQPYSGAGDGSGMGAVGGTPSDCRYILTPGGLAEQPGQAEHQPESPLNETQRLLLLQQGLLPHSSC
Description: as §1

IC50 (human MER)	IC50 (human TYRO3)	Compound
100 to 1000 nM	< 100 nM	C[C@@H]1CCCN1C1CCc2ccc(-c3cnc4[nH]nc(-c5ccc(S(C)(=O)=O)cc5)c4c3)cc2CC1 (stereo partly drawn) [Example 38, 5-(7-((R)-2-Methylpyrrolidin-1-yl)-6,7,8,9-tetrahydro-5H-benzo[7]annulen-2-yl)-3-(4-(methylsulfonyl)phenyl)-1H-pyrazolo[3,4-b]pyridine]
> 1000 nM	> 1000 nM	CC(C)(O)c1ccc(-c2n[nH]c3ncc(-c4ccc5c(c4)CC4CCC(C5)C4N4CCCC4)cc23)cc1Cl (stereo not drawn) [Example 61, 2-(2-Chloro-4-{5-[13-(pyrrolidin-1-yl)tricyclo[8.2.1.0^3,8]trideca-3,5,7-trien-5-yl]-1H-pyrazolo[3,4-b]pyridin-3-yl}phenyl)propan-2-ol]
100 to 1000 nM	< 100 nM	CC(C)S(=O)(=O)c1ccc(-c2n[nH]c3ncc(-c4ccc5c(c4)CC[C@@H](N4CCCC4)CC5)cc23)cc1 [Example 42, (S)-3-(4-(Isopropylsulfonyl)phenyl)-5-(7-(pyrrolidin-1-yl)-6,7,8,9-tetrahydro-5H-benzo[7]annulen-2-yl)-1H-pyrazolo[3,4-b]pyridine]
100 to 1000 nM	100 to 1000 nM	CC(C)(O)c1ccc(-c2n[nH]c3ncc(-c4ccc5c(c4)CCN(C4CCCC4)CC5)cc23)cc1C(F)(F)F [Example 16, 2-{4-[5-(3-Cyclopentyl-2,3,4,5-tetrahydro-1H-3-benzazepin-7-yl)-1H-pyrazolo[3,4-b]pyridin-3-yl]-2-(trifluoromethyl)phenyl}propan-2-ol]
> 1000 nM	< 100 nM	Cc1cc(-c2n[nH]c3ncc(-c4ccc5c(c4)CCN(C4CC4)CC5)cc23)ccc1C(=O)N1CCNCC1 [Example 119, 3-Cyclopropyl-7-{3-[3-methyl-4-(piperazine-1-carbonyl)phenyl]-1H-pyrazolo[3,4-b]pyridin-5-yl}-2,3,4,5-tetrahydro-1H-3-benzazepine]
> 1000 nM	100 to 1000 nM	COCCN1CCc2ccc(-c3cnc4[nH]nc(-c5ccc(C(C)(C)O)c(Cl)c5)c4c3)cc2CC1 [Example 34, 2-(2-Chloro-4-(5-(3-(2-methoxyethyl)-2,3,4,5-tetrahydro-1H-benzo[d]azepin-7-yl)-1H-pyrazolo[3,4-b]pyridin-3-yl)phenyl)propan-2-ol]
100 to 1000 nM	< 100 nM	C[C@@H]1CCCN1C1CCc2ccc(-c3cnc4[nH]nc(-c5ccc(S(N)(=O)=O)c(Cl)c5)c4c3)cc2CC1 (stereo partly drawn) [Example 94, 2-Chloro-4-(5-(7-((R)-2-methylpyrrolidin-1-yl)-6,7,8,9-tetrahydro-5H-benzo[7]annulen-2-yl)-1H-pyrazolo[3,4-b]pyridin-3-yl)benzenesulfonamide]
100 to 1000 nM	100 to 1000 nM	CC1(N[C@H]2CCOC2)CCc2ccc(-c3cnc4[nH]nc(-c5ccc(S(=O)(=O)C6CC6)cc5)c4c3)cc2CC1 (stereo partly drawn) [Example 115, (3S)-N-(2-{3-[4-(Cyclopropanesulfonyl)phenyl]-1H-pyrazolo[3,4-b]pyridin-5-yl}-7-methyl-6,7,8,9-tetrahydro-5H-benzo[7]annulen-7-yl)oxolan-3-amine]
100 to 1000 nM	< 100 nM	C[C@@H]1CCCN1C1(C)CCc2ccc(-c3cnc4[nH]nc(-c5ccc(C(N)=O)c(F)c5)c4c3)cc2CC1 (stereo partly drawn) [Example 52, 2-Fluoro-4-(5-(7-methyl-7-((R)-2-methylpyrrolidin-1-yl)-6,7,8,9-tetrahydro-5H-benzo[7]annulen-2-yl)-1H-pyrazolo[3,4-b]pyridin-3-yl)benzamide]
100 to 1000 nM	100 to 1000 nM	CC(C)(O)c1ccc(-c2n[nH]c3ncc(-c4ccc5c(c4)CCN(C4CCCC4)CC5)cc23)cn1 [Example 10, 2-{5-[5-(3-Cyclopentyl-2,3,4,5-tetrahydro-1H-3-benzazepin-7-yl)-1H-pyrazolo[3,4-b]pyridin-3-yl]pyridin-2-yl}propan-2-ol]
> 1000 nM	100 to 1000 nM	C[C@@H]1CCCN1C1CCc2ccc(-c3cnc4[nH]nc(-c5ccc(C(C)(C)O)cn5)c4c3)cc2CC1 (stereo partly drawn) [Example 97, 2-[6-(5-{7-[(2R)-2-Methylpyrrolidin-1-yl]-6,7,8,9-tetrahydro-5H-benzo[7]annulen-2-yl}-1H-pyrazolo[3,4-b]pyridin-3-yl)pyridin-3-yl]propan-2-ol]
100 to 1000 nM	< 100 nM	C[C@H]1CCCN1C1(C)CCc2ccc(-c3cnc4[nH]nc(-c5ccc(S(=O)(=O)C6CC6)cc5)c4c3)cc2CC1 (stereo partly drawn) [Example 5, (2S)-1-(2-{3-[4-(Cyclopropanesulfonyl)phenyl]-1H-pyrazolo[3,4-b]pyridin-5-yl}-7-methyl-6,7,8,9-tetrahydro-5H-benzo[7]annulen-7-yl)-2-methylpyrrolidine]
> 1000 nM	100 to 1000 nM	O=S(=O)(c1ccc(-c2n[nH]c3ncc(-c4ccc5c(c4)CCN(C4CCOCC4)CC5)cc23)cc1)C1CC1 [Example 26, 7-{3-[4-(Cyclopropanesulfonyl)phenyl]-1H-pyrazolo[3,4-b]pyridin-5-yl}-3-(oxan-4-yl)-2,3,4,5-tetrahydro-1H-3-benzazepine]
> 1000 nM	> 1000 nM	CC(C)(O)c1ccc(-c2n[nH]c3ncc(-c4ccc5c(c4)CCN(C4CCCC4)CC5)cc23)cc1Cl [Example 12, 2-{2-Chloro-4-[5-(3-cyclopentyl-2,3,4,5-tetrahydro-1H-3-benzazepin-7-yl)-1H-pyrazolo[3,4-b]pyridin-3-yl]phenyl}propan-2-ol]
> 1000 nM	100 to 1000 nM	CC1(N2CCc3ccc(-c4cnc5[nH]nc(-c6ccc(S(=O)(=O)C7CC7)cc6)c5c4)cc3CC2)CCCC1 [Example 120, 7-{3-[4-(Cyclopropanesulfonyl)phenyl]-1H-pyrazolo[3,4-b]pyridin-5-yl}-3-(1-methylcyclopentyl)-2,3,4,5-tetrahydro-1H-3-benzazepine]
